# Experimental data taken from ChEMBL document CHEMBL3885861, “Open TG-GATES”.
# Species on record: Rattus norvegicus
# Assay: Open TG-GATES - Regimen: Daily Repeat
# Format: toxicity, organism-based, Sprague-Dawley
# Parameters: regimen Daily Repeat, gender Male, age 6 weeks
# Conditions: in vivo, po, 0 mg/kg, route gavage, dose level Control; for APTT / Bas / Eos / Fbg / Hb / Ht / Lym / MCH / MCHC / MCV / Mono / Neu / PT / Plat / RBC / Ret / WBC: tissue Blood; for KIDNEY_L / KIDNEY_R / KIDNEY_TOTAL: tissue Kidney; for LIVER: tissue Liver; for A/G / ALP / ALT / AST / BUN / CRE / Ca / Cl / DBIL / GLC / IP / K / LDH / Na / PL / RALB / TBIL / TC / TG / TP / gamma-GTP: tissue Plasma
smiles,measurement,setting,value
CCN1CCCC1CNC(=O)c1cc(S(N)(=O)=O)ccc1OC (configuration not stated) [SULPIRIDE],TERMINAL_BW,"72 h, time 3 day",237.8 g
same,APTT,"72 h, time 3 day",16.8 s
same,Bas,"72 h, time 3 day",0%
same,Eos,"72 h, time 3 day",1%
same,Fbg,"72 h, time 3 day",286.8 mg/dL
same,Hb,"72 h, time 3 day",13.4 g/dL
same,Ht,"72 h, time 3 day",41.1%
same,Lym,"72 h, time 3 day",81.6%
same,MCH,"72 h, time 3 day",20.7 pg
same,MCHC,"72 h, time 3 day",32.7%
same,MCV,"72 h, time 3 day",63.2 fL
same,Mono,"72 h, time 3 day",2.8%
same,Neu,"72 h, time 3 day",14%
same,PT,"72 h, time 3 day",12.9 s
same,Plat,"72 h, time 3 day",117.1 x10_4/uL
same,RBC,"72 h, time 3 day",650.4 x10_4/ul
same,Ret,"72 h, time 3 day",6.9%
same,WBC,"72 h, time 3 day",82.7 x10_2/uL
same,KIDNEY_L,"72 h, time 3 day",1.1 g
same,KIDNEY_R,"72 h, time 3 day",1 g
same,KIDNEY_TOTAL,"72 h, time 3 day",2.1 g
same,LIVER,"72 h, time 3 day",11.3 g
same,A/G,"72 h, time 3 day",0.9
same,ALP,"72 h, time 3 day",1602.4 IU/L
same,ALT,"72 h, time 3 day",44.8 IU/L
same,AST,"72 h, time 3 day",67.2 IU/L
same,BUN,"72 h, time 3 day",15.8 mg/dL
same,CRE,"72 h, time 3 day",0.2 mg/dL
same,Ca,"72 h, time 3 day",11.1 mg/dL
same,Cl,"72 h, time 3 day",104.4 meq/L
same,DBIL,"72 h, time 3 day",0.012 mg/dL
same,GLC,"72 h, time 3 day",188.8 mg/dL
same,IP,"72 h, time 3 day",7.3 mg/dL
same,K,"72 h, time 3 day",4.3 meq/L
same,LDH,"72 h, time 3 day",73.8 IU/L
same,Na,"72 h, time 3 day",140.2 meq/L
same,PL,"72 h, time 3 day",153.2 mg/dL
same,RALB,"72 h, time 3 day",2.7 g/dL
same,TBIL,"72 h, time 3 day",0.054 mg/dL
same,TC,"72 h, time 3 day",79.6 mg/dL
same,TG,"72 h, time 3 day",108.6 mg/dL
same,TP,"72 h, time 3 day",5.7 g/dL
same,gamma-GTP,"72 h, time 3 day",1 IU/L
same,TERMINAL_BW,"[…], time 7 day",264.7 g
same,TERMINAL_BW,"[…], time 14 day",315.8 g
same,TERMINAL_BW,"[…], time 28 day",375.6 g
same,APTT,"[…], time 7 day",16.6 s
same,Bas,"[…], time 7 day",0.4%
same,Eos,"[…], time 7 day",1%
same,Fbg,"[…], time 7 day",286.6 mg/dL
same,Hb,"[…], time 7 day",13.9 g/dL
same,Ht,"[…], time 7 day",42%
same,Lym,"[…], time 7 day",82%
same,MCH,"[…], time 7 day",20.7 pg
same,MCHC,"[…], time 7 day",33.2%
same,MCV,"[…], time 7 day",62.5 fL
same,Mono,"[…], time 7 day",2.4%
same,Neu,"[…], time 7 day",14%
same,PT,"[…], time 7 day",12.8 s
same,Plat,"[…], time 7 day",131 x10_4/uL
same,RBC,"[…], time 7 day",672.6 x10_4/ul
same,Ret,"[…], time 7 day",5.3%
same,WBC,"[…], time 7 day",110.2 x10_2/uL
same,APTT,"[…], time 14 day",17.2 s
same,Bas,"[…], time 14 day",0.4%
same,Eos,"[…], time 14 day",0.8%
same,Fbg,"[…], time 14 day",289 mg/dL
same,Hb,"[…], time 14 day",14.6 g/dL
same,Ht,"[…], time 14 day",43.8%
same,Lym,"[…], time 14 day",77.4%
same,MCH,"[…], time 14 day",20 pg
same,MCHC,"[…], time 14 day",33.3%
same,MCV,"[…], time 14 day",60 fL
same,Mono,"[…], time 14 day",2.4%
same,Neu,"[…], time 14 day",18.6%
same,PT,"[…], time 14 day",13 s
same,Plat,"[…], time 14 day",112.7 x10_4/uL
same,RBC,"[…], time 14 day",731.4 x10_4/ul
same,Ret,"[…], time 14 day",3.9%
same,WBC,"[…], time 14 day",115 x10_2/uL
same,APTT,"[…], time 28 day",19.6 s
same,Bas,"[…], time 28 day",0%
same,Eos,"[…], time 28 day",1.2%
same,Fbg,"[…], time 28 day",286.6 mg/dL
same,Hb,"[…], time 28 day",15.8 g/dL
same,Ht,"[…], time 28 day",46%
same,Lym,"[…], time 28 day",77.4%
same,MCH,"[…], time 28 day",19.1 pg
same,MCHC,"[…], time 28 day",34.3%
same,MCV,"[…], time 28 day",55.6 fL
same,Mono,"[…], time 28 day",1.8%
same,Neu,"[…], time 28 day",19%
same,PT,"[…], time 28 day",12.9 s
same,Plat,"[…], time 28 day",119.5 x10_4/uL
same,RBC,"[…], time 28 day",827.2 x10_4/ul
same,Ret,"[…], time 28 day",2.4%
same,WBC,"[…], time 28 day",106.9 x10_2/uL
same,KIDNEY_L,"[…], time 7 day",1.1 g
same,KIDNEY_R,"[…], time 7 day",1.1 g
same,KIDNEY_TOTAL,"[…], time 7 day",2.2 g
same,KIDNEY_L,"[…], time 14 day",1.2 g
same,KIDNEY_R,"[…], time 14 day",1.2 g
same,KIDNEY_TOTAL,"[…], time 14 day",2.4 g
same,KIDNEY_L,"[…], time 28 day",1.2 g
same,KIDNEY_R,"[…], time 28 day",1.2 g
same,KIDNEY_TOTAL,"[…], time 28 day",2.5 g
same,LIVER,"[…], time 7 day",12.3 g
same,LIVER,"[…], time 14 day",13.1 g
same,LIVER,"[…], time 28 day",14.3 g
same,A/G,"[…], time 7 day",0.9
same,ALP,"[…], time 7 day",1380.6 IU/L
same,ALT,"[…], time 7 day",44.2 IU/L
same,AST,"[…], time 7 day",64.8 IU/L
same,BUN,"[…], time 7 day",16 mg/dL
same,CRE,"[…], time 7 day",0.2 mg/dL
same,Ca,"[…], time 7 day",10.8 mg/dL
same,Cl,"[…], time 7 day",104.4 meq/L
same,DBIL,"[…], time 7 day",0.016 mg/dL
same,GLC,"[…], time 7 day",181.6 mg/dL
same,IP,"[…], time 7 day",7.7 mg/dL
same,K,"[…], time 7 day",4.5 meq/L
same,LDH,"[…], time 7 day",64.4 IU/L
same,Na,"[…], time 7 day",141.2 meq/L
same,PL,"[…], time 7 day",152.8 mg/dL
same,RALB,"[…], time 7 day",2.6 g/dL
same,TBIL,"[…], time 7 day",0.052 mg/dL
same,TC,"[…], time 7 day",76.8 mg/dL
same,TG,"[…], time 7 day",118 mg/dL
same,TP,"[…], time 7 day",5.5 g/dL
same,gamma-GTP,"[…], time 7 day",1 IU/L
same,A/G,"[…], time 14 day",0.8
same,ALP,"[…], time 14 day",1582.6 IU/L
same,ALT,"[…], time 14 day",38.8 IU/L
same,AST,"[…], time 14 day",68.8 IU/L
same,BUN,"[…], time 14 day",17 mg/dL
same,CRE,"[…], time 14 day",0.2 mg/dL
same,Ca,"[…], time 14 day",11 mg/dL
same,Cl,"[…], time 14 day",103.2 meq/L
same,DBIL,"[…], time 14 day",0.012 mg/dL
same,GLC,"[…], time 14 day",193.8 mg/dL
same,IP,"[…], time 14 day",7.4 mg/dL
same,K,"[…], time 14 day",3.7 meq/L
same,LDH,"[…], time 14 day",67 IU/L
same,Na,"[…], time 14 day",141.2 meq/L
same,PL,"[…], time 14 day",146.2 mg/dL
same,RALB,"[…], time 14 day",2.6 g/dL
same,TBIL,"[…], time 14 day",0.056 mg/dL
same,TC,"[…], time 14 day",68.2 mg/dL
same,TG,"[…], time 14 day",133.4 mg/dL
same,TP,"[…], time 14 day",5.8 g/dL
same,gamma-GTP,"[…], time 14 day",1 IU/L
same,A/G,"[…], time 28 day",0.8
same,ALP,"[…], time 28 day",975.6 IU/L
same,ALT,"[…], time 28 day",38.2 IU/L
same,AST,"[…], time 28 day",63.8 IU/L
same,BUN,"[…], time 28 day",17.2 mg/dL
same,CRE,"[…], time 28 day",0.3 mg/dL
same,Ca,"[…], time 28 day",10.5 mg/dL
same,Cl,"[…], time 28 day",104.8 meq/L
same,DBIL,"[…], time 28 day",0.012 mg/dL
same,GLC,"[…], time 28 day",169.2 mg/dL
same,IP,"[…], time 28 day",6.8 mg/dL
same,K,"[…], time 28 day",3.7 meq/L
same,LDH,"[…], time 28 day",61.8 IU/L
same,Na,"[…], time 28 day",143.6 meq/L
same,PL,"[…], time 28 day",147 mg/dL
same,RALB,"[…], time 28 day",2.8 g/dL
same,TBIL,"[…], time 28 day",0.062 mg/dL
same,TC,"[…], time 28 day",66.4 mg/dL
same,TG,"[…], time 28 day",167 mg/dL
same,TP,"[…], time 28 day",6.1 g/dL
same,gamma-GTP,"[…], time 28 day",1 IU/L
